The source of these data is US9527849B2, “Salt and polymorph of pyrazolopyrimidinone compound, and pharmaceutical composition containing the same, preparation method and use thereof” (TOPHARMAN SHANGHAI CO., LTD., priority 2011, dated 2016).

In data set [1] the target is PDE8. Briefly: In vitro activity against PDE isoenzyme. Type of data set: biochemical. To be noted: for IC50: PDE8.
Data set [2] can be described thus: Comparison of solubility in water and buffer solutions. Type of data set: physicochemical. To be noted: for solubility: thermodynamic from solid; for solubility (in words): in water and in other solvents. As for the experimental part: The basic compound Z and various salts of compound Z were selected to compare the solubility. Appropriate amount of sample was weighed, placed in glass tubes. The predetermined solvent was added gradually and the extension of clear of the solution was observed. The solvent included the follows: pure water (pH 6.2), hydrochloric acid solution (pH1.0), a standard potassium hydrogen phthalate buffer solution (pH 4.0), and a mixed phosphate buffer solution (pH 6.86).

In data set [3] the test system is cavernous pressure in rats. The data set is described as follows: Cavernous pressure in rats induced by electric stimulus to the erectile nerve (ED). To be noted: rat, 2.50-5.00 mg/kg through duodenum; FIG. 19. Type of data set: in vivo. From the text: The effect of maleate of compound Z on the cavernous pressure variation in rats induced by the electric stimulus to the erectile nerve was studied according to the method described in the reference (International Journal of Impotence Research (2002) 14, 251-255).

Data set [4] has as its system rats with pulmonary arterial hypertension. Briefly: Pulmonary arterial hypertension (PAH) rats, single intravenous administration. Type of data set: in vivo. As to conditions: single intravenous administration of 1 mg/kg, FIG. 18. The source says: (§1) The effects of maleate of compound Z on pulmonary artery pressure of pulmonary arterial hypertension rats were studied according to the method described in the reference (J Pharmacol Sci, 111, 235-243 (2009)).

Data set [5] has the same test system. Briefly: Pulmonary arterial hypertension (PAH) rats, chronic oral administration. Type of data set: in vivo. As to conditions: each dose group, FIG. 17.
From the text: as §1

Data set [6] deals with rats cavernous body pressure/arterial blood pressure (ICP/BP). Briefly: Erectile dysfunction (ED) efficacy trial in vivo in rats, method of WO2007056955. As to conditions: Dose 10 mg/kg, after the administration.
Data set [7] can be described thus: Hygroscopicity, moisture weight gain in desiccator. Type of data set: physicochemical. To be noted: for Moisture weight gain (%): relative humidity 92.5%, 48 hours, room temperature. As for the experimental part:
The hygroscopicities of various salts of compound Z were studied. A certain amount of the sample was placed in a precisely-weighted glass weighing bottle with a stopper to accurately weight. Then the open glass weighing bottle was placed in a desiccator (the saturated potassium nitrate solution was placed at the lower part of the desiccator, the relative humidity was 92.5%) and stood for 48 hours at room temperature. And then the glass weighing bottle was covered with the stopper and weighted again. The absorbent weight can be calculated.

Data set [8] has as its target PDE6. The data set is described as follows: In vitro activity against PDE isoenzyme. Type of data set: biochemical.
Data set [9] concerns the target PDE4. The data set is described as follows: In vitro activity against PDE isoenzyme. Type of data set: biochemical. As to conditions: for IC50: PDE4.
For data set [10], the target named is PDE11 (Homo sapiens, UniProt Q9HCR9). The data set is described as follows: In vitro activity against PDE isoenzyme. Type of data set: biochemical.
Sequence of PDE11 (Q9HCR9 whole entry): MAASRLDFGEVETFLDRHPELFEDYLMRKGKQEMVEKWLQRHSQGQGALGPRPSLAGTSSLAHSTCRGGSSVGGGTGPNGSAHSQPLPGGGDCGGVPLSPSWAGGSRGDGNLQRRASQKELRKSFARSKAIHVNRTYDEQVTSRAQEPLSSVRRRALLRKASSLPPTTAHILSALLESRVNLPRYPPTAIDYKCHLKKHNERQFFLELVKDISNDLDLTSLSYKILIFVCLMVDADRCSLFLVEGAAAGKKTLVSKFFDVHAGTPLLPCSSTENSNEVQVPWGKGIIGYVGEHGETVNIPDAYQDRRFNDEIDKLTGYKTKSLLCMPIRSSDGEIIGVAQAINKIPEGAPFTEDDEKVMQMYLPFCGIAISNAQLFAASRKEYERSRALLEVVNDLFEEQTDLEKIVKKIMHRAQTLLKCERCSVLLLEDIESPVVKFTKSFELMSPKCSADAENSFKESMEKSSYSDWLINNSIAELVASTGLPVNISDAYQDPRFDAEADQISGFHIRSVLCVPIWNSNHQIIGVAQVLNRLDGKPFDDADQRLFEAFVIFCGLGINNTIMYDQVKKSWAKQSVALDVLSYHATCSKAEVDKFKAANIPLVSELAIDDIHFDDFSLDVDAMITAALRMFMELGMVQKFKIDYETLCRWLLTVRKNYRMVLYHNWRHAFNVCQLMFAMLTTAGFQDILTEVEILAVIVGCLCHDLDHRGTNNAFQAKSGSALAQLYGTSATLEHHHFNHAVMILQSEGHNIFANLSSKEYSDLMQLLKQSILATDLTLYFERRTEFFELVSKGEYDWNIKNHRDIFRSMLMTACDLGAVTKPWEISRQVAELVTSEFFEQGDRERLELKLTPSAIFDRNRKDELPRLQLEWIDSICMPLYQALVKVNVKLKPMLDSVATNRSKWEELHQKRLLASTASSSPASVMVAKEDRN
In data set [11] the target is PDE1. Briefly: In vitro activity against PDE isoenzyme. Type of data set: biochemical. To be noted: for IC50: PDE1.
For data set [12], the target named is PDE3. The data set is described as follows: In vitro activity against PDE isoenzyme. Type of data set: biochemical.
Data set [13] can be described thus: Comparison of appearance, characters and odor. Type of data set: physicochemical. The source says: The basic compound Z and various salts of compound Z were selected to compare the appearance and characters.
In data set [14] the target is PDE5 (Homo sapiens, UniProt O76074). The data set is described as follows: In vitro activity against PDE isoenzyme. Type of data set: biochemical.
The target in data set [15] is PDE9 (Homo sapiens, UniProt O76083). The data set is described as follows: In vitro activity against PDE isoenzyme. Type of data set: biochemical.
Sequence of PDE9 (O76083 whole entry): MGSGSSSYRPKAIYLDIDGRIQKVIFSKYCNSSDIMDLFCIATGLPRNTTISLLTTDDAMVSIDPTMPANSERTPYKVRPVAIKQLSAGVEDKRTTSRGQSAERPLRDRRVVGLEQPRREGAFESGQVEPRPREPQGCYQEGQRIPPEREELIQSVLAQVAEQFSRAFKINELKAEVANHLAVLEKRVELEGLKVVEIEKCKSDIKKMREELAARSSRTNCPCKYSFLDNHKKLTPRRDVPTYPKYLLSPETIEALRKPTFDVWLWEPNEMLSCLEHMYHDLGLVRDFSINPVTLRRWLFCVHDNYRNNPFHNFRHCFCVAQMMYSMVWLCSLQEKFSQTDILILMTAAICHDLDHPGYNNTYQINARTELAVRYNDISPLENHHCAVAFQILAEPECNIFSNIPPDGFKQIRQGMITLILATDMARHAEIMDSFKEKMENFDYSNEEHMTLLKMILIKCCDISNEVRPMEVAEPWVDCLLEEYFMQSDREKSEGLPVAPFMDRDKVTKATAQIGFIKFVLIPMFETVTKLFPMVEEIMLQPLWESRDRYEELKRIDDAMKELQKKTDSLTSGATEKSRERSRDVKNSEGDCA
For data set [16], the target named is PDE10 (Homo sapiens, UniProt Q9Y233). Briefly: In vitro activity against PDE isoenzyme. Type of data set: biochemical.
Sequence of PDE10 (Q9Y233 whole entry): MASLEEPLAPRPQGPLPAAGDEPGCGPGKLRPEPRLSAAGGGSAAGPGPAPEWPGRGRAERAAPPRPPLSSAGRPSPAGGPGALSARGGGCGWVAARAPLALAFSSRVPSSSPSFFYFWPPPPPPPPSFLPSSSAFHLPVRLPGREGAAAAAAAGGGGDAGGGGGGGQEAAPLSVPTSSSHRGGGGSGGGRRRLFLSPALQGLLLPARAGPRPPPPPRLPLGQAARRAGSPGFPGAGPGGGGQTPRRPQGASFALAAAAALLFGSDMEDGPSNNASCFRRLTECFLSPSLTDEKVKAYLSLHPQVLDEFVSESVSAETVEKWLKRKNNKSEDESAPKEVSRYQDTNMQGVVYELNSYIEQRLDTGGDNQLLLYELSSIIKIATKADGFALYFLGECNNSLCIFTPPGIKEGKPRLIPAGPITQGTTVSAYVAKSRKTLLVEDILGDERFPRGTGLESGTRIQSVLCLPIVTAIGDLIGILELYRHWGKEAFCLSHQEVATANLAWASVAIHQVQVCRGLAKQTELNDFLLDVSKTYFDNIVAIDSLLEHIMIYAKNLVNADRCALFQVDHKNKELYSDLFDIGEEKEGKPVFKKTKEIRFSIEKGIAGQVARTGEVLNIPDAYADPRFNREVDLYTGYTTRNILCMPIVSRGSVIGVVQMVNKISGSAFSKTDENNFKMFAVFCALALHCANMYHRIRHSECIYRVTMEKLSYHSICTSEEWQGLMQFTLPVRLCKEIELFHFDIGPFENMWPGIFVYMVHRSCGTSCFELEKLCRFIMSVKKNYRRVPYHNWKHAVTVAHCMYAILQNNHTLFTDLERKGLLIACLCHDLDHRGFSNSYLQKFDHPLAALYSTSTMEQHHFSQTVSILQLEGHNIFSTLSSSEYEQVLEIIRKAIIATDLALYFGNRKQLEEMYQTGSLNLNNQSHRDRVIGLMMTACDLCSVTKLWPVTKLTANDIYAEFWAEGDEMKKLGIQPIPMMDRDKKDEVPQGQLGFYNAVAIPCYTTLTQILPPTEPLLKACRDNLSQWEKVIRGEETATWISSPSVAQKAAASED
Data set [17] can be described thus: Impact factor stability test (high temperature, high humidity, light exposure). Type of data set: physicochemical. To be noted: for chemical stability (in words): high temperature, high humidity. The source says:
The basic compounds of compound Z and the maleate thereof were selected to compare the chemical stability through an impact factor test, and results were shown in Table 8: […]

Data set [18] has as its target PDE7. Briefly: In vitro activity against PDE isoenzyme. Type of data set: biochemical. As to conditions: for IC50: PDE7.
The nature of data set [19]: Comparison of salts and crystalline forms (crystal water, static, stability, component, crystalline form). Type of data set: physicochemical.
The target of data set [20] is PDE2 (Homo sapiens, UniProt O00408). Briefly: In vitro activity against PDE isoenzyme. Type of data set: biochemical.
Sequence of PDE2 (O00408 whole entry): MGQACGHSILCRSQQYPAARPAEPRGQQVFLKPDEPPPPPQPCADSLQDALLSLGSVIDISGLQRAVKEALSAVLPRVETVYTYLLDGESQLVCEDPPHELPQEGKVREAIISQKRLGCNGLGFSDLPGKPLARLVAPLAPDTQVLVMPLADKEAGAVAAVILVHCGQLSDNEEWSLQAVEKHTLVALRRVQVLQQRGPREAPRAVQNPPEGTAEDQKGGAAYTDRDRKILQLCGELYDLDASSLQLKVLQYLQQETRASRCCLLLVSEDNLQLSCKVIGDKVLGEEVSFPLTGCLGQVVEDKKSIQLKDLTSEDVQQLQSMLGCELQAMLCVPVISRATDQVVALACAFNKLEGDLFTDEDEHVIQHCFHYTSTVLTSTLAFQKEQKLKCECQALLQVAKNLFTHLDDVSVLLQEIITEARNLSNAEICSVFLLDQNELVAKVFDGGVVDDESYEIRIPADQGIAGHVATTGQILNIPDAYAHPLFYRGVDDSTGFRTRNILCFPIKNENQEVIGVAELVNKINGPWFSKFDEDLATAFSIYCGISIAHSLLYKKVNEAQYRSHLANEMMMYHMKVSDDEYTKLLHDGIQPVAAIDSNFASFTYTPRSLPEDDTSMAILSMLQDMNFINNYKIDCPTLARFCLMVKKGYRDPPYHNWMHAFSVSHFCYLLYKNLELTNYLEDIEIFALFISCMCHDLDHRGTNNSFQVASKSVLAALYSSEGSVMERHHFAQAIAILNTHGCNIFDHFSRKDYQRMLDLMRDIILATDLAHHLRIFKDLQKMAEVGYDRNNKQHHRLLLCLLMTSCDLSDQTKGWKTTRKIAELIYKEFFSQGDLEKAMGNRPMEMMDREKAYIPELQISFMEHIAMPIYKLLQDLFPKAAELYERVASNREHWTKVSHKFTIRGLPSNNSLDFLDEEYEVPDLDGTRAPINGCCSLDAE
The mark [21] stands for this setting: High temperature, 5 days, listed as Compound Z (basic).
[22] abbreviates: High temperature, 10 days, listed as Compound Z (basic).
Where [23] appears, read: Light exposure, 5 days, listed as Compound Z (basic).
Where [24] appears, read: Light exposure, 10 days, listed as Compound Z (basic).

“Also recorded” adds a separate entry of the source. Where a name gives a salt, the structure may show the parent alone. Read-outs that look alike come from different tables or passages of the source.

In the case of `CCCOc1ccc(S(=O)(=O)N(C)CCN2CCCC2)cc1-c1nc2c(CCC)nn(C)c2c(=O)[nH]1` [Maleate of compound Z, 1-methyl-5-{2-propoxy-5-[[1-methyl-1-(2-pyrrolidin-1-yl)ethyl]aminosulfonyl]phenyl}-3-propyl-1,6-dihydro-7H-pyrazolo[4,3-D]pyrimidin-7-one maleate], the IC50 in data set [1] is more than 100 µM; in data set [8] (PDE6), 0.0452 µM; in data set [9], 4.07 µM; in data set [10] (PDE11), 6.09 µM; in data set [11] it was 0.462 µM; in [12] (PDE3), 22 µM. For the same molecule, the IC50 in data set [14] (PDE5) is 0.00228 µM; in data set [15] (PDE9), more than 100 µM; in data set [16] (PDE10), more than 100 µM; in [18] it was more than 100 µM; in [20] (PDE2) it was more than 100 µM. Also, the “IC50(PDEs)/IC50(PDE5)” value is listed as more than 10000 in data set [1] (PDE8 vs PDE5); 20 in data set [8] (PDE6 vs PDE5); 1785 in data set [9] (PDE4 vs PDE5); 2671 in data set [10] (PDE11 vs PDE5); 203 in data set [11] (PDE1 vs PDE5); 9649 in data set [12] (PDE3 vs PDE5). The “IC50(PDEs)/IC50(PDE5)” value in data set [15] (PDE9 vs PDE5), in data set [16] (PDE10 vs PDE5), in [18] (PDE7 vs PDE5) and in data set [20] (PDE2 vs PDE5) was more than 10000 in each case. For the same molecule, the solubility in [2] (hydrochloric acid solution, pH 1, simulated gastric fluid, hydrochloric acid solution (pH 1.0), read-out: Solubility, hydrochloric acid solution (pH 1.0)) was more than 42 mg/mL; in data set [2] (mixed phosphate buffer solution, pH 6.86, aqueous buffer, mixed phosphate buffer solution (pH 6.86), read-out: Solubility, buffer solution (pH 6.86)) it was more than 19.8 mg/mL; in [2] (pure water, pH 6.1, water, Pure water (pH 6.1), read-out: Solubility, Pure water (pH 6.1)) it was more than 11 mg/mL. In addition, the “ICP value (cavernous peak pressure)” value in [3] is given as “significantly increased”. Besides, in [3], the “ICP/BP values (cavernous peak pressure/carotid arterial blood pressure)” value was “significantly increased”. Moreover, the mean aortic pressure result in [4] is recorded as “significantly reduce”. The “mean pulmonary artery pressure” value in data set [4] is reported as “significantly reduce”. In addition, in [4], the “selectivity for the reduction of pulmonary artery pressure” value was “strong selectivity”. For the same molecule, in data set [5], the “pulmonary arterial pressure compared with the model group” value is “significantly reduce”. Besides, in data set [5], the “pulmonary arterial pressure compared with the positive control group” value is reported as “no significant difference”. In data set [6] (10 mg/kg), the “ICP/BP increasing rate (%)” value is 80.99 ± 17.01 %. The “hygroscopicity (in words)” value in [7] is listed as “minimal hygroscopicity”. Moreover, the “Moisture weight gain (%)” value in data set [7] is given as 1.56%. The Characters result in data set [13] is reported as “white solid”. Further, in data set [13], the Odor result is “no bad smell”. In data set [14] (in vitro enzyme inhibitors screening test), the “activity and selectivity for PDE5 enzyme (in words)” value is “high activity and selectivity”. Further, the purity in data set [17] (0 day) amounted to 99.79%; in data set [17] (High humidity, 5 days), 99.79%; in data set [17] (High humidity, 10 days), 99.80%; in data set [17] (High temperature, 5 days), 99.69%; in data set [17] (High temperature, 10 days) it was 99.76%; in data set [17] (Light exposure, 5 days), 99.65%. In addition, the purity in [17] (Light exposure, 10 days) is given as 99.68%. In addition, the trait entry in [17] (0 day) is given as “white”; in data set [17] (High humidity, 5 days), “white”; in data set [17] (High humidity, 10 days) it was “white”; in [17] (High temperature, 5 days), “white”; in data set [17] (High temperature, 10 days), “white”; in data set [17] (Light exposure, 5 days), “white”. Further, in data set [17] (Light exposure, 10 days), the trait result was “white”. Further, the “chemical stability (in words)” value in [17] (light exposure) is on record as “stable”. Also, the component entry in data set [19] was “constant”. The crystal water result in [19] is given as “no”. In addition, the stability result in data set [19] is “stable”. The static entry in [19] is “no”.
As for “1-methyl-5-{2-propoxy-5-[[1-methyl-1-(2-pyrrolidin-1-yl)ethyl]aminosulfonyl]phenyl}-3-propyl-1,6-dihydro-7H-pyrazolo[4,3-D]pyrimidin-7-one maleate”, in [7], the “hygroscopicity (in words)” value is on record as “low moisture absorption; also recorded: no hygroscopicity”.
Turning to `CCCc1nn(C)c2c(=O)[nH]c(-c3cc(S(=O)(=O)N4CCN(C)CC4)ccc3OCC)nc12` [Sildenafil, reference compound], the IC50 in [1] is more than 100 µM; in [9], 5.83 µM; in [11] it was 0.46 µM; in data set [18], 46.9 µM. In data set [6], the “ICP/BP increasing rate (%)” value was determined as 73.10 ± 36.24 %.
For `CCCOc1ccc(S(=O)(=O)N(C)CCN2CCCC2)cc1-c1nc2c(CCC)nn(C)c2c(=O)[nH]1` (as salt: maleate) [Maleate of compound Z, 1-methyl-5-{2-propoxy-5-[[1-methyl-1-(2-pyrrolidin-1-yl)ethyl]aminosulfonyl]phenyl}-3-propyl-1,6-dihydro-7H-pyrazolo[4,3-D]pyrimidin-7-one maleate], the melting point is 162.5 to 163.3 °C.
Turning to `CCCOc1ccc(S(=O)(=O)N(C)CCN2CCCC2)cc1-c1nc2c(CCC)nn(C)c2c(=O)[nH]1` [Compound Z, 1-methyl-5-{2-propoxy-5-[[1-methyl-1-(2-pyrrolidin-1-yl)ethyl]aminosulfonyl]phenyl}-3-propyl-1,6-dihydro-7H-pyrazolo[4,3-d]pyrimidin-7-one], the “Solubility, Pure water (pH 6.1)” value in data set [2] (Pure water (pH 6.1), listed as Compound Z (basic)) is on record as “insoluble”. The “Solubility, hydrochloric acid solution (pH 1.0)” value in [2] (hydrochloric acid solution (pH 1.0), listed as Compound Z (basic)) is on record as more than 21 mg/ml. For the same molecule, the “solubility (in words)” value in data set [2] is recorded as “poor water-solubility”; in data set [2] (listed as basic compound Z), “significantly less”. Moreover, the “Solubility, buffer solution (pH 6.86)” value in [2] (mixed phosphate buffer solution (pH 6.86), listed as Compound Z (basic)) is given as “insoluble”. For the same molecule, in data set [2] (standard potassium hydrogen phthalate buffer solution, pH 4, aqueous buffer, potassium hydrogen phthalate buffer solution (pH 4.0), read-out: Solubility, buffer solution (pH 4.0)), the solubility was more than 5.88 mg/mL. Further, the “ICP/BP increasing rate (%)” value in [6] (listed as basic compound Z, 10 mg/kg) was 72.22 ± 19.28 %. Also, in data set [7] (listed as Basic compound Z), the “Moisture weight gain (%)” value is 0.39%. Also, the Characters entry in data set [13] is reported as “white solid”. Also, the Odor entry in [13] and in [13] (listed as compound Z) was “pungent odor” throughout. In addition, the trait result in data set [17] (0 day) is recorded as “white”; in [17] (High humidity, 5 days), “white”; in [17] (High humidity, 10 days), “white”; in [17] (setting [21]), “pale yellow”; in data set [17] (setting [22]), “yellow”; in data set [17] (setting [23]), “pale yellow”. Also, in data set [17] (setting [24]), the trait result is on record as “pale yellow”. In addition, the purity in [17] (0 day, listed as Compound Z (basic)) was determined as 98.25%; in data set [17] (High humidity, 5 days, listed as Compound Z (basic)) it was 98.02%; in data set [17] (High humidity, 10 days, listed as Compound Z (basic)) it was 98.20%; in data set [17] (setting [21]) it was 94.70%; in [17] (setting [22]), 94.55%; in data set [17] (setting [23]) it was 72.49%. The same molecule registered a purity in [17] (setting [24]) of 55.88%. In addition, the “chemical stability (in words)” value was “poor chemical stability” in [17] (light exposure) and “poor stability” in [17] (light exposure, listed as basic compound Z). The molecule further registered a degradation in data set [17] (light exposure, after 10 days) of approximately 50%.
